In patent US20260078089A1, “BIOACTIVE PHYTOCHEMICALS IN ZIZYPHUS AND GUARANA” (Phytoquest Limited, priority 2018, published 2026):

Experiments:
Assay in all cases: Glycosidase assay, p-nitrophenyl substrate
Assay type in all cases: biochemical
[1] = system: Naringinase; conditions: Penicillium decumbens enzyme; screened at 0.14 mg mL−1 (footnote: 0.4 mM)
Method: (§1) Glycosidase assays were conducted as described by Watson et al. (Phytochemistry 1997, 46, 255) using p-nitrophenyl-substrates (except sialidase which used methylumbeliferyl-N-acetyineuraminic acid as substrate). Assays were carried out in microtitre plates. Enzymes were assayed in 0.1 M citric acid/0.2 M di-sodium hydrogen phosphate (McIlvaine) buffers at the optimum pH for the enzyme. All assays were carried out at 20° C. All enzymes and substrates were purchased from Sigma Aldrich Chemicals Limited. The incubation mixture consisted of 10 μl of enzyme solution, 10 μl of the iminosugars solution and 50 μl of the appropriate 5 mM p-nitrophenyl substrate made up in McIlvaine buffer at the optimum pH for the enzyme. The reactions were stopped with 0.4 M glycine (pH 10.4) during the exponential phase of the reaction. Absorbances were read at 405 nm. Water was substituted for the alkaloids in the blanks. Reactions were carried out in triplicate.
(§2) Enzyme inhibitor solutions—Compounds were dissolved in distilled water at a concentration of 1 mg mL^−1 and then screened at a concentration of 0.14 mg mL^−1 after dilution of the 1 mg mL^−1 in the assay volumes of substrates.

[2] = system: N-acetyl-β-D-glucosaminidase; conditions: screened at 0.14 mg mL−1 (footnote: 0.4 mM)
Method: as §1, §2

[3] = target: T1, α-D-glucosidase (Oryza sativa subsp. japonica, UniProt Q653V7); conditions: Rice enzyme; screened at 0.14 mg mL−1 (footnote: 0.4 mM)
T1 construct: purchased Sigma Aldrich Chemicals Limited
Method: as §1, §2

[4] = target: T2, α-D-glucosidase (Saccharomyces cerevisiae, UniProt P53341); conditions: Saccharomyces cerevisiae enzyme; screened at 0.14 mg mL−1 (footnote: 0.4 mM); 20° C
T2 construct: purchased Sigma Aldrich Chemicals Limited
Method: as §1, §2

[5] = target: T3, α-D-mannosidase (Canavalia ensiformis, UniProt C0HJB3); conditions: Jack bean enzyme; screened at 0.14 mg mL−1 (footnote: 0.4 mM)
T3 construct: purchased Sigma Aldrich Chemicals Limited
T3 sequence (C0HJB3 1-981): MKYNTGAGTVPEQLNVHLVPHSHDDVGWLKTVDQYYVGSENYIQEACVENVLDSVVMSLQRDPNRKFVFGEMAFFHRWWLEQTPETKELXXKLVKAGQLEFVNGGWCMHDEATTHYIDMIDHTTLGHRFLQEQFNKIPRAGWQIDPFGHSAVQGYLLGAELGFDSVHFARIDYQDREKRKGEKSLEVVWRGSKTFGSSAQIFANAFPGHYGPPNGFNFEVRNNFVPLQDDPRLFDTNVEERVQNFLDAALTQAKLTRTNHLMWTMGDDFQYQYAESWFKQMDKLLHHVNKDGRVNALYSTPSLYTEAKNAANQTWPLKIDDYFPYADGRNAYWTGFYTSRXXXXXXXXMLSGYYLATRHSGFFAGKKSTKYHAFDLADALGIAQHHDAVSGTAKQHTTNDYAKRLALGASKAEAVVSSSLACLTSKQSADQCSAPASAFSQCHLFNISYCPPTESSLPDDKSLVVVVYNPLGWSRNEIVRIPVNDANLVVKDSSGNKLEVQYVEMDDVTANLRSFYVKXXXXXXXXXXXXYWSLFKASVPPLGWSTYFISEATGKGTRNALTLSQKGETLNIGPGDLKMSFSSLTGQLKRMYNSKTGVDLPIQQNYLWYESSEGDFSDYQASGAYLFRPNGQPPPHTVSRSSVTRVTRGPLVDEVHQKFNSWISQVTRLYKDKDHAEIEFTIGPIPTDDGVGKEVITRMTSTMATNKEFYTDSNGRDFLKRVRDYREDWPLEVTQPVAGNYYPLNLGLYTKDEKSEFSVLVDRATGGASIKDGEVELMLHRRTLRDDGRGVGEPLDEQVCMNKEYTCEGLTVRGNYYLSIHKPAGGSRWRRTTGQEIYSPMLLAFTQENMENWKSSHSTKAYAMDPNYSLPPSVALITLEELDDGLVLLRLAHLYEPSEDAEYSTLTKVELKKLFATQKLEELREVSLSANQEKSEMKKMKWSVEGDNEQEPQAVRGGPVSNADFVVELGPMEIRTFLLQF
Method: as §1, §2

[6] = target: T4, α-L-fucosidase (Bos taurus, UniProt Q2KIM0); conditions: Bovine kidney enzyme; screened at 0.14 mg mL−1 (footnote: 0.4 mM)
T4 construct: purchased Sigma Aldrich Chemicals Limited
T4 sequence (Q2KIM0 23-468): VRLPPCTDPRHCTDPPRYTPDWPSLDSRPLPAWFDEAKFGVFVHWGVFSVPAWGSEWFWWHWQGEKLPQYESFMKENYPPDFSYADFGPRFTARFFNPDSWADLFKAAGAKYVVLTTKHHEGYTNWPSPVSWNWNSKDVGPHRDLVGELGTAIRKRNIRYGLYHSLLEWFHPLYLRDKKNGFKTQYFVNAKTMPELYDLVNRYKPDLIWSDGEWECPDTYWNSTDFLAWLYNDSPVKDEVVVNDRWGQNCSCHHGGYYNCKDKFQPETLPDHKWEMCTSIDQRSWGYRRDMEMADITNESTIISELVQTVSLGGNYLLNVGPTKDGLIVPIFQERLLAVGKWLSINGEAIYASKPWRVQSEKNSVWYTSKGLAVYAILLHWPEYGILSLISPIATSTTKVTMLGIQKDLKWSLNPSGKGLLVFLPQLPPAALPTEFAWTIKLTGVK
Method: as §1, §2

[7] = target: T5, α-D-galactosidase (Coffea arabica, UniProt Q42656); conditions: Green coffee bean enzyme; screened at 0.14 mg mL−1 (footnote: 0.4 mM)
T5 construct: purchased Sigma Aldrich Chemicals Limited
Method: as §1, §2

[8] = system: β-D-galactosidase; conditions: Bovine liver enzyme; screened at 0.14 mg mL−1 (footnote: 0.4 mM)
Method: as §1, §2

[9] = target: T6, Amyloglucosidase (Aspergillus niger, UniProt P69328); conditions: Aspergillus niger enzyme; screened at 0.14 mg mL−1 (footnote: 0.4 mM)
T6 construct: purchased Sigma Aldrich Chemicals Limited
Method: as §1, §2

[10] = system: α-D-glucosidase; conditions: Bacillus sterothermphilus enzyme; screened at 0.14 mg mL−1 (footnote: 0.4 mM)
Method: as §1, §2

[11] = system: β-D-mannosidase; conditions: Cellullomonas fimi enzyme; screened at 0.14 mg mL−1 (footnote: 0.4 mM)
Method: as §1, §2

[12] = target: T7, N-acetyl-β-D-hexosaminidase (Aspergillus oryzae, UniProt Q8J2T0); conditions: Aspergillus oryzae enzyme; screened at 0.14 mg mL−1 (footnote: 0.4 mM)
T7 construct: purchased Sigma Aldrich Chemicals Limited
Method: as §1, §2

[13] = system: β-D-glucosidase; conditions: Almond enzyme; screened at 0.14 mg mL−1 (footnote: 0.4 mM)
Method: as §1, §2

T5 sequence (Q42656 16-378): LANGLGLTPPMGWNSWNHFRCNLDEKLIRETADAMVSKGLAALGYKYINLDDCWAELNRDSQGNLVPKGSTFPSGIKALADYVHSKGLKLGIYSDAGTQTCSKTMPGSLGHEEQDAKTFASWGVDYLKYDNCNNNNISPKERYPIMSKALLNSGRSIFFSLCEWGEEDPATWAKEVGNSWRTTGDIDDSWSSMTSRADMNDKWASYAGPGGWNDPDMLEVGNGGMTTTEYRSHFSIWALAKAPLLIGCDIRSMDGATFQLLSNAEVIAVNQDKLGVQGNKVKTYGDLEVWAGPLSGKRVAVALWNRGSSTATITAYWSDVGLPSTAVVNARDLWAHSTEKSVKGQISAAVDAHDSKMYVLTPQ
T1 sequence (Q653V7 34-885): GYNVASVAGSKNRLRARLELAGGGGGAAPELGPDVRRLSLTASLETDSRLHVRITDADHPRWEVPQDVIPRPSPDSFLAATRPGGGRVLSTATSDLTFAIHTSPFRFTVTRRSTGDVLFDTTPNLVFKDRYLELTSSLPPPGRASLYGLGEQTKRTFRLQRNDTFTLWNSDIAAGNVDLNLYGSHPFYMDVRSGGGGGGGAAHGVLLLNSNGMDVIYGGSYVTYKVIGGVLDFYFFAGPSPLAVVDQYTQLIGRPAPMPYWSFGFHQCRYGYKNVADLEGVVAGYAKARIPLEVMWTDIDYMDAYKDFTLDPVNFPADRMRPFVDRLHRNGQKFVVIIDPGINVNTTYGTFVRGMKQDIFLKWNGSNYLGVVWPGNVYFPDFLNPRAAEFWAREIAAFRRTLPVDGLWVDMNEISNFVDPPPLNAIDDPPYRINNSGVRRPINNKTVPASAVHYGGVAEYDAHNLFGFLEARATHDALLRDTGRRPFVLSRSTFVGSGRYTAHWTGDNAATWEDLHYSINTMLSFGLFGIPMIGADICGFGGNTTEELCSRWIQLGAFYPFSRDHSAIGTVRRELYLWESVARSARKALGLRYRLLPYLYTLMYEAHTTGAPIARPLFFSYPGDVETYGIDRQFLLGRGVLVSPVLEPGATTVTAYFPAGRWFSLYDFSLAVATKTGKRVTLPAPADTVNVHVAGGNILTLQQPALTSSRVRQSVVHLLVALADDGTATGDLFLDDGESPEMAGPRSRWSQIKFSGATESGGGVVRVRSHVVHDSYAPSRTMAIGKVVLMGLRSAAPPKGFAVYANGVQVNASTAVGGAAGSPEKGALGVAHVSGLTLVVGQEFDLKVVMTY
T6 sequence (P69328 25-640): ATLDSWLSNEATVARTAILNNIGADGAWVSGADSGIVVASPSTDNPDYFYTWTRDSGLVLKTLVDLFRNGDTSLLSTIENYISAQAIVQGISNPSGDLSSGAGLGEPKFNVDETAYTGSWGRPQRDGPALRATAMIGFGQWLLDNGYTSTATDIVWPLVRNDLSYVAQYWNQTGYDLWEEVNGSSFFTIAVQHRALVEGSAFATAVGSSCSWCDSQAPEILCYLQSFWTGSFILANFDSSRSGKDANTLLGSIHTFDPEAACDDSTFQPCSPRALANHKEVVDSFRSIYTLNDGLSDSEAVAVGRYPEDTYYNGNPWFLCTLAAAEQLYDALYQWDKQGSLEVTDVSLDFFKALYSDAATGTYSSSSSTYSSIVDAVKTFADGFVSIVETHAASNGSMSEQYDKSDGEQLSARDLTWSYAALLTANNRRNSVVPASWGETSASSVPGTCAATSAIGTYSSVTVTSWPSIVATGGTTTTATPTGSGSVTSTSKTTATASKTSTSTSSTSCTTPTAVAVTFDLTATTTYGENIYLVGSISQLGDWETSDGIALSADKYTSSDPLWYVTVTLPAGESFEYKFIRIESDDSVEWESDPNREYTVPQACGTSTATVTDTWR
T7 sequence (Q8J2T0 97-600): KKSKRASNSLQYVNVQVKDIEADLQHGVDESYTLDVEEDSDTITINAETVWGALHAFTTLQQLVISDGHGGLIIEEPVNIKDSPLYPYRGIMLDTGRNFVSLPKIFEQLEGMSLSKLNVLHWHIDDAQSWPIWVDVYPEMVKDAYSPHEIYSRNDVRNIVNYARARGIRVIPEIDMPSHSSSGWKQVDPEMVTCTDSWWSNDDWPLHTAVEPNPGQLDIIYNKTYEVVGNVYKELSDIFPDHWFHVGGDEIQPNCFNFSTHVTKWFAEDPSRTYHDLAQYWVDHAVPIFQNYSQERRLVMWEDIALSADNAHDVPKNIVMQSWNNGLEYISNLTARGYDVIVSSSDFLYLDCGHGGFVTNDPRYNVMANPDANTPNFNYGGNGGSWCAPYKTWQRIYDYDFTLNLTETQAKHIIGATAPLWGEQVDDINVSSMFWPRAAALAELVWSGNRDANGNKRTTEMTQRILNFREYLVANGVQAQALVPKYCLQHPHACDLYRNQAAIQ
T2 sequence (P53341 whole entry): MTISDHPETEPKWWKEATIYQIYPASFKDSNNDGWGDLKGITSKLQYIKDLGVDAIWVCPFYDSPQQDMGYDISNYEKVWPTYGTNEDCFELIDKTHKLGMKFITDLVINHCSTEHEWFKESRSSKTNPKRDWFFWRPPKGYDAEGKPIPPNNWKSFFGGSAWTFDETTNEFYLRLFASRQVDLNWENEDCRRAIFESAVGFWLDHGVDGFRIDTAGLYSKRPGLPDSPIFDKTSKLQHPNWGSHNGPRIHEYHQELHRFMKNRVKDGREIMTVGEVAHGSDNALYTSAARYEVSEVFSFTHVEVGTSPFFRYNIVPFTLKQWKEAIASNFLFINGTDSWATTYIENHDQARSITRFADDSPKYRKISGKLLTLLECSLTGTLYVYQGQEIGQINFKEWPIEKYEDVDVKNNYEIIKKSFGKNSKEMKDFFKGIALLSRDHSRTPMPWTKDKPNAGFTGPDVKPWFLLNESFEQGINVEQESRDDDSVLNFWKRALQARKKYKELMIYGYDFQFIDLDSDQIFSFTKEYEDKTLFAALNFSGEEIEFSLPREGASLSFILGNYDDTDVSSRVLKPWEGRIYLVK

OC[C@H]1N[C@H](CO)[C@@H](O)[C@@H]1O [DMDP]
% inhibition [1]: 2.97% | % inhibition ([2]; Bovine kidney enzyme): −7.60% | % inhibition ([2]; Jack bean enzyme): −6.65% | % inhibition [3]: 94.59% | % inhibition [4]: 97.37% | % inhibition [5]: 2.70% | % inhibition [6]: 4.84% | % inhibition [7]: 6.95% | % inhibition [8]: 98.75% | % inhibition [9]: 46.84% | % inhibition [10]: 92.98% | % inhibition [11]: 93.34% | % inhibition [12]: 5.62% | % inhibition [13]: 96.61%
